# In patent publication US9061352B2, “Dry powder formulations and methods for treating pulmonary diseases” (priority 2010, dated 2015):
# Columns and labels:
# Type in all cases: physicochemical
# [1] = Emitted geometric particle size from dry powder inhaler by Spraytec (Dv50, GSD, FPF<5 μm); details: for average Dv50: 9.2 Joules; for Dv50: measured lower energies
# Excerpt: (§1) Volume median diameter can also be measured using a method where the powder is emitted from a dry powder inhaler device. The equipment consisted of a Spraytec laser diffraction particle size system (Malvern, Worcestershire, UK), “Spraytec”. Powder formulations were filled into size 3 HPMC capsules (Capsugel V-Caps) by hand with the fill weight measured gravimetrically using an analytical balance (Mettler Tolerdo XS205). A capsule based passive dry powder inhalers (RS-01 Model 7, High resistance Plastiape S.p.A.) was used which had specific resistance of 0.036 kPa^1/2 LPM^−1. Flow rate and inhaled volume were set using a timer controlled solenoid valve with flow control valve (TPK2000, Copley Scientific). Capsules were placed in the dry powder inhaler, punctured and the inhaler sealed to the inlet of the laser diffraction particle sizer. The steady air flow rate through the system was initiated using the TPK2000 and the particle size distribution was measured via the Spraytec at 1 kHz for at least 2 seconds and up to the total inhalation duration. Particle size distribution parameters calculated included the volume median diameter (Dv50) and the geometric standard deviation (GSD) and the fine particle fraction (FPF) of particles less than 5 micrometers in diameter. At the completion of the inhalation duration, the dry powder inhaler was opened, the capsule removed and re-weighed to calculate the mass of powder that had been emitted from the capsule during the inhalation duration (capsule emitted powder mass or CEPM).
# The previous description of the use of the Spraytec was for what is described as its “closed bench configuration”. Alternatively, the Spraytec can be used in its “open bench configuration”. In the open bench configuration, capsules were placed in the dry powder inhaler, punctured and the inhaler sealed inside a cylinder. The cylinder was connected to a positive pressure air source with steady air flow through the system again measured with a mass flow meter and its duration controlled with a timer controlled solenoid valve. The exit of the dry powder inhaler was exposed to room pressure and the resulting aerosol jet passed through the laser of the diffraction particle sizer (Spraytec) in its open bench configuration before being captured by a vacuum extractor. The steady air flow rate through the system was initiated using the solenoid valve and the particle size distribution was measured via the Spraytec at 1 kHz for the duration of the single inhalation maneuver with a minimum of 2 seconds, as in the closed bench configuration. When data are reported in the examples as being measured by the Spraytec, they are from the closed bench configuration unless otherwise noted.
# The volume median diameter (Dv50) of the powder after it emitted from a dry powder inhaler, which may also be referred to as volume median geometric diameter (VMGD), was determined using a laser diffraction technique via the Spraytec diffractometer (Malvern, Inc., Worcestershire, UK). Powder was filled into size 3 capsules (V-Caps, Capsugel) and placed in a capsule based dry powder inhaler (RS01 Model 7 High resistance, Plastiape, Italy), or DPI, which was connected with an airtight seal to the inhaler adapter of the Spraytec. A steady airflow rate was drawn through the DPI typically at 60 L/min for a set duration, typically of 2 seconds controlled by a timer controlled solenoid (TPK2000, Copley, Scientific, UK). Alternatively, the airflow rate drawn through the DPI was sometimes run at 15 L/min, 20 L/min, or 30 L/min. The outlet aerosol then passed perpendicularly through the laser beam as an internal flow. The resulting geometric particle size distribution of the aerosol was calculated from the software based on the measured scatter pattern on the photodetectors with samples typically taken at 1000 Hz for the duration of the inhalation. The Dv50, GSD, FPF<5.0 μm measured were then averaged over the duration of the inhalation. […]
# [2] = Capsule emitted powder mass (CEPM) from dry powder inhaler; details: for average CEPM, % of capsule fill weight: 9.2 Joules (60 L/min for 2 L), high resistance RS-01
# Excerpt: as §1
# A measure of the emission properties of the powders was determined by using the information obtained from the Andersen Cascade Impactor tests. The filled capsule weight was recorded at the beginning of the run and the final capsule weight was recorded after the completion of the run. The difference in weight represented the amount of powder emitted from the capsule (CEPM or capsule emitted powder mass). The emitted dose was calculated by dividing the amount of powder emitted from the capsule by the total initial particle mass in the capsule. While the standard CEPM was measured at 60 L/min, it was also measured at 15 L/min, 20 L/min, or 30 L/min.
# Powder formulations were filled into size 3 HPMC capsules (Capsugel V-Caps) by hand with the fill weight measured gravimetrically using an analytical balance (Mettler Tolerdo XS205). […] Two capsule based passive dry powder inhalers (RS-01 Model 7, Low resistance Plastiape S.p.A. and RS-01 Model 7, High resistance Plastiape S.p.A.) were used which had specific resistances of 0.020 and 0.036 kPa1/2/LPM which span the typical range of dry powder inhaler resistance. Flow rate and inhaled volume were set using a timer controlled solenoid valve with flow control valve (TPK2000, Copley Scientific). Capsules were placed in the appropriate dry powder inhaler, punctured and the inhaler sealed to the inlet of the laser diffraction particle sizer (Spraytec, Malvern). The steady air flow rate through the system was initiated using the TPK2000 and the particle size distribution was measured via the Spraytec at 1 kHz for the durations at least 2 seconds and up to the total inhalation duration. Particle size distribution parameters calculated included the volume median diameter (Dv50) and the geometric standard deviation (GSD) and the fine particle fraction (FPF) of particles less than 5 micrometers in diameter. At the completion of the inhalation duration, the dry powder inhaler was opened, the capsule removed and re-weighed to calculate the mass of powder that had been emitted from the capsule during the inhalation duration. At each testing condition, 5 replicate capsules were measured and the results of Dv50, FPF and capsule emitted powder mass (CEPM) were averaged. […]
# [3] = Heat of solution in HBSS buffer; details: for heat of solution ΔH / ΔH (kJ/mol), Average / ΔH (kcal/mol), Average: HBSS buffer; for ΔH (kJ/mol), Average / ΔH (kcal/mol), Average: per mol Ca for all powders except leucine (mol Leu); for ΔH (kJ/mol), Average / ΔH (kcal/mol), Average / Q (cal), Average / ΔT (deg. C.), Average: experiment #1; for Q (cal), Average / ΔT (deg. C.), Average: dissolution in HBSS buffer
# [4] = Fine particle fraction by two-stage collapsed Andersen Cascade Impactor (ACI-2); details: spray dried from 70% ethanol, 50 g/L
# [5] = Volume median diameter (x50) and dispersibility ratios by HELOS/RODOS laser diffraction
# Protocol: Volume median diameter (×50 or Dv50), which may also be referred to as volume median geometric diameter (VMGD), was determined using a laser diffraction technique. The equipment consisted of a HELOS diffractometer and a RODOS dry powder disperser (Sympatec, Inc., Princeton, N.J.). The RODOS disperser applies a shear force to a sample of particles, controlled by the regulator pressure (typically set at 1.0 bar) of the incoming compressed dry air. The pressure settings may be varied to vary the amount of energy used to disperse the powder. For example, the regulator pressure may be varied from 0.2 bar to 4.0 bar; and the orifice ring pressure may be varied from 5.00 mbar to 115.00 mbar. Powder sample is dispensed from a microspatula into the RODOS funnel. The dispersed particles travel through a laser beam where the resulting diffracted light pattern produced is collected, typically using an R1 lens, by a series of detectors. The ensemble diffraction pattern is then translated into a volume-based particle size distribution using the Fraunhofer diffraction model, on the basis that smaller particles diffract light at larger angles. Using this method geometric standard deviation (GSD) for the volume mean geometric diameter was also determined.
# [6] = RS.01.HR, fill 25 mg, 15 LPM, 4 s, 0.29 J
# [7] = RS.01.HR, fill 25 mg, 20 LPM, 3 s, 0.51 J
# [8] = RS.01.HR, fill 25 mg, 30 LPM, 2 s, 1.15 J
# [9] = RS.01.HR, fill 25 mg, 60 LPM, 2 s, 9.18 J
# [10] = RS.01.HR, fill 40 mg, 15 LPM, 4 s, 0.29 J
# [11] = RS.01.HR, fill 40 mg, 20 LPM, 3 s, 0.51 J
# [12] = RS.01.HR, fill 40 mg, 30 LPM, 2 s, 1.15 J
# [13] = RS.01.HR, fill 40 mg, 60 LPM, 2 s, 9.18 J
# [14] = RS.01.LR, fill 25 mg, 60 LPM, 2 s, 2.85 J
# [15] = RS.01.LR, fill 40 mg, 60 LPM, 2 s, 2.85 J
# [16] = all measured energies below 9.2 Joules, 25 and 40 mg fill
compound,measurement,setting,value
albuterol sulfate [Micronized Albuterol],average Dv50,[1]; 25 mg fill,1.8 μm
same,Dv50,[1]; 25 mg fill,3.9 μm
same,average Dv50,[1]; 40 mg fill,1.6 μm
same,Dv50,[1]; 40 mg fill,3.1 μm
same,Mean Dv(50) (μm),[1]; [6],16.76 μm
same,"Mean FPF, % <5 μm",[1]; [6],13.00%
same,Mean Dv(50) (μm),[1]; [7],8.40 μm
same,"Mean FPF, % <5 μm",[1]; [7],32.10%
same,Mean Dv(50) (μm),[1]; [8],3.86 μm
same,"Mean FPF, % <5 μm",[1]; [8],59.44%
same,Mean Dv(50) (μm),[1]; [9],1.77 μm
same,"Mean FPF, % <5 μm",[1]; [9],81.65%
same,Mean Dv(50) (μm),[1]; [10],17.63 μm
same,"Mean FPF, % <5 μm",[1]; [10],10.73%
same,Mean Dv(50) (μm),[1]; [11],6.34 μm
same,"Mean FPF, % <5 μm",[1]; [11],42.24%
same,Mean Dv(50) (μm),[1]; [12],3.13 μm
same,"Mean FPF, % <5 μm",[1]; [12],67.18%
same,Mean Dv(50) (μm),[1]; [13],1.60 μm
same,"Mean FPF, % <5 μm",[1]; [13],84.30%
same,Mean Dv(50) (μm),[1]; [14],2.57 μm
same,"Mean FPF, % <5 μm",[1]; [14],75.01%
same,Mean Dv(50) (μm),[1]; [15],2.62 μm
same,"Mean FPF, % <5 μm",[1]; [15],73.98%
same,"average CEPM, % of capsule fill weight",[2]; 25 mg fill,93%
same,"average CEPM, % of capsule fill weight",[2]; 40 mg fill,84%
same,Mean CEPM,[2]; [6],3.12 mg
same,Mean CEPM,[2]; [7],5.00 mg
same,Mean CEPM,[2]; [8],7.08 mg
same,Mean CEPM,[2]; [9],23.18 mg
same,Mean CEPM,[2]; [10],2.43 mg
same,Mean CEPM,[2]; [11],4.97 mg
same,Mean CEPM,[2]; [12],8.55 mg
same,Mean CEPM,[2]; [13],33.40 mg
same,Mean CEPM,[2]; [14],15.28 mg
same,Mean CEPM,[2]; [15],18.88 mg
same,CEPM,[2]; [16],below 10 mg
same,"CEPM, % of capsule fill weight",[2]; [16],< 30%
"O.O.[Ca+2].[Cl-].[Cl-] [raw calcium chloride dihydrate, calcium chloride dihydrate]",heat of solution ΔH,[3]; first experiment,-12.1 kcal/mol
same,heat of solution ΔH,[3]; second experiment,-8.4 kcal/mol
O.O.[Ca+2].[Cl-].[Cl-] [CaCl2•2H2O],"ΔH (kJ/mol), Average",[3],-50.5 kJ/mol
same,"ΔH (kcal/mol), Average",[3],-12.1 kcal/mol
same,"Q (cal), Average",[3],2.93 cal
same,"ΔT (deg. C.), Average",[3],0.024 deg. C.
CC(C)C[C@H](N)C(=O)O [Leucine],"ΔH (kJ/mol), Average",[3],-6 kJ/mol
same,"ΔH (kcal/mol), Average",[3],-1.5 kcal/mol
same,"Q (cal), Average",[3],0.37 cal
same,"ΔT (deg. C.), Average",[3],0.003 deg. C.
"[Cl-].[Cl-].[Mg+2] [Pure magnesium chloride, magnesium chloride]",fine particle fraction less than 5.6 microns,[4],19%
same,median volume particle size,"[5]; spray dried from 70% ethanol, 50 g/L",4 microns
same,median particle size,"[5]; spray dried from D.I. water, 20 g/L",21 microns
